The text below walks through data of US7300932B2, “Pyrrolo[1,2-b]pyridazine derivatives” (Japan Tobacco Inc., priority 2003, dated 2007).

pIC50: −log10 of the molar value. Some results are limits rather than exact numbers.

This assay addresses T1, human DGAT1 (Homo sapiens, UniProt O75907).
T1 construct: made in house; host or cells: insect cells (e.g., sf9, sf21, or High Five), Bac-to-Bac baculovirus; total cell membranes
T1 sequence (O75907 1-488): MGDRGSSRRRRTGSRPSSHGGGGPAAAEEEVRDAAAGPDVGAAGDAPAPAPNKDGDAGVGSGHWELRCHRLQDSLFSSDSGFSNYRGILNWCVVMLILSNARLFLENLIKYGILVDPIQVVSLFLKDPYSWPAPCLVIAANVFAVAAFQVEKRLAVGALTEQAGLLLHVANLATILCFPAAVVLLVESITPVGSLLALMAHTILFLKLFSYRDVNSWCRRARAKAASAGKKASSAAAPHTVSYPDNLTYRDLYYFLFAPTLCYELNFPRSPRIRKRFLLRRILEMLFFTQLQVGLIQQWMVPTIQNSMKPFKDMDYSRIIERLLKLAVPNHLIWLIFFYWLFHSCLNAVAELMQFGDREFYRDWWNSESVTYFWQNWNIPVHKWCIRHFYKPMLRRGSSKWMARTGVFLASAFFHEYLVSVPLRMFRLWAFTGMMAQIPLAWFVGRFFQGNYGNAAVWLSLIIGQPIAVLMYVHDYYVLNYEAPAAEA
Description: DGAT Scintillation Proximity Assay (SPA) with membranes of insect cells expressing human flagtag DGAT1. The following applies: DGAT inhibition. It is filed as biochemical. The method, then:
In such an assay human DGAT1 is cloned from a human liver cDNA library. PCR is used to add a restriction site and flag epitope at the most 5′ end and a restriction site at the 3′ end of the sequence. Thereafter, human flagtag (FT) DGAT1 baculovirus may be generated using a Bac-to-Bac Baculovirus Expression System® (Invitrogen). Insect cells (e.g., sf9, sf21, or High Five) are infected for 24 to 72 h and collected by centrifugation. Cell pellets are resuspended in homogenization buffer and lysed using a homogenization device, such as a Microfluidizer. Total cell membranes are collected by ultracentrifugation at 45,000 rpm for 1 h.
A small aliquot (0.2 μg/well) of membrane is incubated with 10 μM compound or mercuric chloride (as positive control for inhibition) in the presence of enzyme substrate, dioleoyl glycerol (200 μM) in 384 well plates, final volume 50 μL per well. […] The reaction is stopped by adding Wheat Germ Agglutinin (WGA) SPA beads (0.2 mg) in mercuric chloride. Cell membranes are allowed to couple to the beads overnight. The signal can be measured using, for example, a Chemiluminescence Image Plate Reader (CLIPR) or TopCount device.
A general note: In a scintillation proximity assay essentially only radioactivity close to the scintillant gives light.
What is called pIC50 is −log10 of the IC50, conventionally taken in molar units. A low value points to a high IC50. For the molecule `CCCc1c(-c2ncc(-c3ccccc3)o2)c(C(=O)OCC)c2c(-c3ccccc3)cc(N3CCOCC3)nn12` [Example 80, 2-Morpholin-4-yl-4-phenyl-6-(5-phenyl-oxazol-2-yl)-7-propyl-pyrrolo[1,2-b]pyridazine-5-carboxylic acid ethyl ester], the pIC50 was < 6.30.

With `CCCc1c(-c2nnc(C)o2)c(C(=O)OCC)c2c(-c3ccccc3)cc(N3CCOCC3)nn12` [Example 78, 6-(5-Methyl-[1,3,4]oxadiazol-2-yl)-2-morpholin-4-yl-4-phenyl-7-propyl-pyrrolo[1,2-b]pyridazine-5-carboxylic acid ethyl ester], the pIC50 is < 6.30. For `CCCc1c(C(=O)OCC)c(C(=O)OCC)c2c(-c3ccccc3)cc(N3CCCC3)nn12` [Example 96, 4-Phenyl-7-propyl-2-pyrrolidin-1-yl-pyrrolo[1,2-b]pyridazine-5,6-dicarboxylic acid diethyl ester] the value was > 6.30; for `CCCc1c(C(=O)OCC)c(C(=O)OCC)c2c(C3CCCCC3)cc(N3CCOCC3)nn12` [Example 90, 4-Cyclohexyl-2-morpholin-4-yl-7-propyl-pyrrolo[1,2-b]pyridazine-5,6-dicarboxylic acid diethyl ester], > 6.30. For `CCCc1c(C(=O)OCC)c(C(=O)OCC)c2c(-c3ccccc3)cc(N3CCC3)nn12` [Example 95, 2-Azetidin-1-yl-4-phenyl-7-propyl-pyrrolo[1,2-b]pyridazine-5,6-dicarboxylic acid diethyl ester] the value was < 6.30; for `CCOC(=O)c1c(C(=O)OCC)c2c(-c3ccccc3)cc(N3CCOCC3)nn2c1C` [Example 24, 7-Methyl-2-morpholin-4-yl-4-phenyl-pyrrolo[1,2-b]pyridazine-5,6-dicarboxylic acid diethyl ester], < 6.30; for `CCOC(=O)c1c(C(=O)OCC)c2c(-c3ccccc3)cc(N3CCOCC3)nn2c1C1CC1` [Example 8, 7-Cyclopropyl-2-morpholin-4-yl-4-phenyl-pyrrolo[1,2-b]pyridazine-5,6-dicarboxylic acid diethyl ester], < 6.30.
